Laboratory results from US20250262185A1, “METHODS OF ADMINISTERING NEUROPSYCHIATRIC MEDICATIONS BASED ON RENAL IMPAIRMENT” (Sumitomo Pharma America, Inc., priority 2024, published 2025).
Like-named read-outs stand apart in the source and are kept apart here.

Tests used:
[1] = Phase 1 pharmacokinetic study of SEP-363856 in subjects with severe renal impairment and ESRD compared to normal renal function (Example 1)
Description: Renal function was assessed according to estimated glomerular filtration rate (eGFR) calculated using the Modification of Diet in Renal Disease (MDRD) equation at Screening and Check-in. Estimates calculated using the Cockcroft-Gault equation were also reported. Subjects in Group 1 had severe renal impairment not requiring dialysis and subjects in Group 2 had ESRD requiring dialysis.
Healthy matched controls with normal renal function were enrolled to match (age, sex, weight, race) across the 2 groups. A healthy control could be matched to more than 1 renally impaired subject. Potential subjects were screened to assess their eligibility to enter the study within 28 days (Day −28 to Day −3) prior to dose administration (Day 1). Each subject completed 1 or 2 treatment periods (1 treatment period for Group 1 and normal healthy subjects with normal renal function and 2 treatment periods for Group 2).
Subjects in Group 1 and the normal healthy subjects were admitted into the Clinical Research Unit (CRU) on Day −2 and confined to the CRU until discharge on Day 5. […] No food was allowed for 4 hours post-dose. Subjects in Group 1 returned to the CRU for a Follow-up visit approximately 7 days after discharge (i.e., Day 12±2).
Subjects in Group 2 followed their established dialysis schedule. They were admitted into the CRU on Day −2 and confined to the CRU until discharge on Day 5. […]

hERG = hERG (Homo sapiens, UniProt Q12809); assay: toxicological studies, hERG inhibition; assay type: biochemical; conditions: concentrations up to 30 μM
clinical = conditions: both, human, plasma, oral, 25 mg
Description: (§1) Renal function was assessed according to estimated glomerular filtration rate (eGFR) calculated using the Modification of Diet in Renal Disease (MDRD) equation at Screening and Check-in.
(§2) Healthy controls with normal renal function were enrolled in an effort to approximately match demographics (age, sex, weight, race) across the 2 groups. Potential subjects were screened to assess their eligibility to enter the study within 28 days (Day −28 to Day −3) prior to dose administration (Day 1).
(§3) Nine healthy controls, 9 subjects with mild renal impairment, and 6 subjects with moderate renal impairment were enrolled.
(§4) Male and female subjects aged between 18 and 70 years (inclusive) with a body mass index (BMI) between 18.0 and 40.0 kg/m^2 (inclusive) were eligible for study inclusion. Subjects were in good health except for specific inclusion criteria related to the status of renal impairment.
(§5) Subjects fasted for a minimum of 8 hours before dosing, and an additional 4 hours post-dose; intake of water was restricted except for the period from 1-hour pre-dose through 1-hour post-dose.
(§6) Final Results: Results were obtained by fitting an ANOVA model to the natural log-transformed PK parameter, with renal function group as fixed effect and subject as random effect. Results were back transformed to obtain the geometric LS mean ratio and 90% CI.

[2] = in vivo
From the text: Any of the embodiments of this disclosure can be practiced to prevent accumulation of SEP-103 in the body exceeding levels studied and deemed safe in preclinical toxicology studies. […].

[3] = Phase 1 pharmacokinetic study of SEP-856 in subjects with mild and moderate renal impairment compared to normal renal function (Example 3); conditions: for SEP-383103 AUC0-∞ Geo LS Mean / SEP-383103 Cmax Geo LS Mean: ANOVA; for SEP-383103 AUC0-∞ Geo LS Mean / SEP-383103 Cmax Geo LS Mean / MRAUC (metabolite-to-parent ratio based on AUC0-∞) / SEP-383103 plasma Cmax / SEP-383103 plasma Tmax: n=8; for MRAUC (metabolite-to-parent ratio based on AUC0-∞) / SEP-383103 plasma Cmax: GeoMean; for SEP-383103 plasma Cmax / SEP-383103 plasma Tmax: metabolite after single dose SEP-363856 25 mg; for SEP-383103 plasma Tmax: Median
Description: as §1, §2, §3, §4, §5, §6

[4] = final results, Moderate vs Healthy

Chain of hERG (Q12809 whole entry): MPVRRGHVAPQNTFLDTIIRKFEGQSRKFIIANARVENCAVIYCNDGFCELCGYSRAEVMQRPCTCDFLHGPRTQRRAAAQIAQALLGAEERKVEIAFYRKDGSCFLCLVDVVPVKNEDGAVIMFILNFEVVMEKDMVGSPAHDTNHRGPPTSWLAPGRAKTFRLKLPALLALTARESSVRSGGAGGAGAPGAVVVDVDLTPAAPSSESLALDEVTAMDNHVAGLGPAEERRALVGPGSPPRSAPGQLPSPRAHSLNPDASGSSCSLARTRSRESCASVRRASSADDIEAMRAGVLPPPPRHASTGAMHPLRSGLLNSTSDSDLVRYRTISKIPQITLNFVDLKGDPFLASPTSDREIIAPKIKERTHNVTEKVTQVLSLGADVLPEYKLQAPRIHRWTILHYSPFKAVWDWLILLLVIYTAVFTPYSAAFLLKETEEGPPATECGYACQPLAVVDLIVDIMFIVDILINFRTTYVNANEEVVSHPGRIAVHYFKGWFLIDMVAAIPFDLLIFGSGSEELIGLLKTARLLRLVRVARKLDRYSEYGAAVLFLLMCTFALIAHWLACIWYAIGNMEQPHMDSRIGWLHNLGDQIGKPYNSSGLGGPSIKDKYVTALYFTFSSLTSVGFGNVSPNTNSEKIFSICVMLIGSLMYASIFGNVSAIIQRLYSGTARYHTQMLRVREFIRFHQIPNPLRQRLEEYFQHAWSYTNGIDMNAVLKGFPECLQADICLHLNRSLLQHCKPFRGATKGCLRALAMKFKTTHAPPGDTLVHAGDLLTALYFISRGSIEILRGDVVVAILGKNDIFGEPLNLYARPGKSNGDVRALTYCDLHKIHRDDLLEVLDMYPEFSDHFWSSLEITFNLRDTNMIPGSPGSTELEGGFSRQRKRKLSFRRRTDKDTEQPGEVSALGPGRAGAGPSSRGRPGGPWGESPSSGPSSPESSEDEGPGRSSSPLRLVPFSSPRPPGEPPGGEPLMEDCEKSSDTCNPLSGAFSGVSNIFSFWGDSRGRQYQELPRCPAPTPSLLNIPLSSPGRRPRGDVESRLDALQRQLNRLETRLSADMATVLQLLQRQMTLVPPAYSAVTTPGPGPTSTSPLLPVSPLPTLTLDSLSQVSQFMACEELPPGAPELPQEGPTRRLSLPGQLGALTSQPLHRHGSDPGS

For `O=C(O)[C@@H]1OCCc2ccsc21` [SEP-383103], the “correlation between exposure (AUC0-∞ and AUC0-last) and renal function” value ([1]; human, in vivo) was “strong correlation”, the “metabolite median Tmax versus healthy subjects” value ([1]; severe renal impairment) was “delayed substantially” and the hERG inhibition (hERG) was “no hERG inhibition”. The AUC(0-inf) (clinical) was 613 ng·h/mL, the “blood concentration studied and deemed to be safe” value ([2]; dog) was 1100 ng/mL and the “exposure level studied and deemed to be safe” value ([2]; dog) was 12200 ng·h/mL. The “blood concentration studied and deemed to be safe” value ([2]; rat) was 700 ng/mL, the “exposure level studied and deemed to be safe” value ([2]; rat) was 11700 ng·h/mL and the “correlation between exposure (AUC0-∞ and Cmax) and degree of renal impairment” value ([3]; final results) was “significant correlation”. The “SEP-383103 AUC0-∞ Geo LS Mean” value ([3]; final results, Mild) was 769.5 ng·h/mL, the “SEP-383103 Cmax Geo LS Mean” value ([3]; final results, Mild) was 54.98 ng/mL and the “SEP-383103 AUC0-∞ Geo LS Mean” value ([3]; final results, Moderate) was 1043 ng·h/mL. For the same molecule, the “SEP-383103 Cmax Geo LS Mean” value ([3]; final results, Moderate) was 56.30 ng/mL, the “MRAUC (metabolite-to-parent ratio based on AUC0-∞)” value ([3]; final results, Healthy) was 0.7348 and the “SEP-383103 AUC0-∞ Geo LS Mean Ratio” value ([3]; final results, Mild vs Healthy) was 125.47%. The “SEP-383103 Cmax Geo LS Mean Ratio” value ([3]; final results, Mild vs Healthy) was 128.43%, the “MRAUC (metabolite-to-parent ratio based on AUC0-∞)” value ([3]; final results, Mild) was 0.9643 and the “SEP-383103 AUC0-∞ Geo LS Mean Ratio” value [3, 4] was 170.12%. For the same molecule, the “SEP-383103 Cmax Geo LS Mean Ratio” value [3, 4] was 131.50%, the “MRAUC (metabolite-to-parent ratio based on AUC0-∞)” value ([3]; final results, Moderate) was 1.276 and the “SEP-383103 plasma Cmax” value ([3]; final results, Mild) was 54.98 ng/mL. For the same molecule, the “SEP-383103 plasma Tmax” value ([3]; final results, Mild) was 5.000 h, the “SEP-383103 plasma Cmax” value ([3]; final results, Moderate) was 56.30 ng/mL and the “SEP-383103 plasma Tmax” value ([3]; final results, Moderate) was 6.000 h. For the same molecule, the “metabolite Tmax change” value ([3]; mild renal impairment vs healthy) was “no change”.
